# Measurements from US8802674B2, “Aminopyrimidine derivatives as LRRK2 modulators” (Genentech, Inc., priority 2011, dated 2014).
# Target: LRRK2 (Homo sapiens (Human), UniProt Q5S007, G2019S)
# Test: In Vitro LRRK2 LabChip Assay
# Format: biochemical
# Conditions: Table 4
# In short: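 Potency (Ki in μM, IC50 or % inhibition) derived from capillary-electrophoresis separation of phospho- and unphosphorylated fluorescent peptide, with Ki fitted by a tight-binding model.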
# Chain of LRRK2 (Q5S007 970-2527 G2019S limits assumed): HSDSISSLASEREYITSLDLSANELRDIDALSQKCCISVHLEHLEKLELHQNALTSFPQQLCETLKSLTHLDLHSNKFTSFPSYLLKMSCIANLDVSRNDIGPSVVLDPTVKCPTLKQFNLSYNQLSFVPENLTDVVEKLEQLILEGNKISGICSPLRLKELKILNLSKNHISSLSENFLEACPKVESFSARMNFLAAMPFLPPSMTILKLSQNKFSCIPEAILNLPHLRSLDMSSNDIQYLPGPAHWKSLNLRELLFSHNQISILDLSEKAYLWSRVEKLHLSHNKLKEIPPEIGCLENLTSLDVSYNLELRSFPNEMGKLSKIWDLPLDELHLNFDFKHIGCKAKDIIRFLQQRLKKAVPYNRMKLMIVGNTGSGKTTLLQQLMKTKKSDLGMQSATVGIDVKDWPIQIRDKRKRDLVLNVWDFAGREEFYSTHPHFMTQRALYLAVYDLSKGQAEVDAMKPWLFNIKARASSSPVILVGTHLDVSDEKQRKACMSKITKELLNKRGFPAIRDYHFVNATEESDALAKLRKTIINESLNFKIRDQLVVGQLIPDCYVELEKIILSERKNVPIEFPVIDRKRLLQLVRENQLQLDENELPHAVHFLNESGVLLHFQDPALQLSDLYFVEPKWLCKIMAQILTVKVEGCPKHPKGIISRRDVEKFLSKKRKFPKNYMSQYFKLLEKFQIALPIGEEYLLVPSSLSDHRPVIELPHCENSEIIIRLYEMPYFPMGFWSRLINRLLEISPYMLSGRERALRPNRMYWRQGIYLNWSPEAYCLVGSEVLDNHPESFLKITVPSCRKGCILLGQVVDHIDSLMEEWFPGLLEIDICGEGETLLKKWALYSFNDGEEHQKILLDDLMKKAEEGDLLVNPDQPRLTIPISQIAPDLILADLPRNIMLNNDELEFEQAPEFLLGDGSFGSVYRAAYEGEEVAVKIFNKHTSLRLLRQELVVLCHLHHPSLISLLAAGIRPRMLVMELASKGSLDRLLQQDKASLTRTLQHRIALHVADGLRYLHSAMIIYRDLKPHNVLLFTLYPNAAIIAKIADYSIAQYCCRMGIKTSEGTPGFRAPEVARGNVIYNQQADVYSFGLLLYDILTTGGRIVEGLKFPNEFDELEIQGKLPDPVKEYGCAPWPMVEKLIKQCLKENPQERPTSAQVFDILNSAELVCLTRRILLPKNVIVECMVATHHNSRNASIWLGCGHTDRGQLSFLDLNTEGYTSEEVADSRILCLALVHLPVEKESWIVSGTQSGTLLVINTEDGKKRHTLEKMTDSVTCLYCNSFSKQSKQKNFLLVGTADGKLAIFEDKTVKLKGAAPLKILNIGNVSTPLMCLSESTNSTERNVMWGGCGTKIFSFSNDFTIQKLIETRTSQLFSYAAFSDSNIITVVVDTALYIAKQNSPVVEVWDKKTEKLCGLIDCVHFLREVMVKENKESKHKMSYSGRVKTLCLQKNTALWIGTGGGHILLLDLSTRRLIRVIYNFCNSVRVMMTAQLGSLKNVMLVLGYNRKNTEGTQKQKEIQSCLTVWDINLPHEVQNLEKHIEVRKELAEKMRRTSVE
row,SMILES,Ki
1,"CNC(=O)c1cc(OC)c(Nc2ncc(C(F)(F)F)c(NC)n2)cc1F [Example 180, 2-Fluoro-5-methoxy-N-methyl-4-(4-methylamino-5-trifluoromethyl-pyrimidin-2-ylamino)-benzamide]",4.7 nM
2,"CNc1nc(Nc2cc(OC)c(C(=O)N(C)CC(C)(C)O)cc2Cl)ncc1C(F)(F)F [Example 181, 5-Chloro-N-(2-hydroxy-2-methyl-propyl)-2-methoxy-N-methyl-4-(4-methylamino-5-trifluoromethyl-pyrimidin-2-ylamino)-benzamide]",6.3 nM
3,"COc1cc(C(=O)N2CCOCC2)ccc1Nc1ncc(C2CC2)c(OC)n1 [Example 182, (4-(5-cyclopropyl-4-methoxypyrimidin-2-ylamino)-3-methoxyphenyl) (morpholino) methanone]",89.5 nM
4,"CNc1nc(Nc2ccc(C(=O)N3CCOCC3)cc2OC)ncc1C(C)=O [Example 183, l-{2-[2-Methoxy-4-(morpholine-4-carbonyl)-phenylamino]-4-methylamino-pyrimidin-5-yl}-ethanone]",68.2 nM
5,"COCCNc1nc(Nc2cc(F)c(C(=O)N3CCOCC3)cc2OC)ncc1Br [Example 185, {4-[5-Bromo-4-(2-methoxy-ethylamino)-pyrimidin-2-ylamino]-2-fluoro-5-methoxy-phenyl}-morpholin-4-yl-methanone]",6.9 nM
6,"COCCNc1nc(Nc2ccc(C(=O)N3CCOCC3)cc2OC(C)C)ncc1Br [Example 186, {4-[5-Bromo-4-(2-methoxy-ethylamino)-pyrimidin-2-ylamino]-3-isopropoxy-phenyl}-morpholin-4-yl-methanone]",13.5 nM
7,"COCCOc1nc(Nc2ccc(C(=O)N3CCOCC3)cc2OC2CCC2)ncc1Cl [Example 187, {4-[5-Chloro-4-(2-methoxy-ethoxy)-pyrimidin-2-ylamino]-3-cyclobutoxy-phenyl}-morpholin-4-yl-methanone]",14.3 nM
8,"CNc1nc(Nc2ccc(C(=O)N3CC4(COC4)C3)cc2OC2CCCC2)ncc1Cl [Example 188, [4-(5-Chloro-4-methylamino-pyrimidin-2-ylamino)-3-cyclopentyloxy-phenyl]-(2-oxa-6-aza-spiro[3.3]hept-6-yl)-methanone]",6.3 nM
9,"CNc1nc(Nc2ccc(C(=O)N3CC4(COC4)C3)cc2OC)ncc1Cl [Example 190, [4-(5-Chloro-4-methylamino-pyrimidin-2-ylamino)-3-methoxy-phenyl]-(2-oxa-6-aza-spiro[3.3]hept-6-yl)-methanone]",6.3 nM
10,"CNc1nc(Nc2ccc(C(=O)N3CC(F)(F)OC(F)(F)C3)cc2OC)ncc1C#N [Example 191, 2-(2-methoxy-4-(2,2,6,6-tetrafluoromorpholine-4-carbonyl)phenylamino)-4-(methylamino) pyrimidine-5-carbonitrile]",20.8 nM
11,"CNc1nc(Nc2ccc(C(=O)N3CCOCC3)cc2C2CC2)ncc1Cl [Example 193, [4-(5-Chloro-4-methylamino-pyrimidin-2-ylamino)-3-cyclopropyl-phenyl]-morpholin-4-yl-methanone]",23.9 nM
12,"CNc1nc(Nc2ccc(C(=O)NC3CC(F)(F)C3)cc2OC)ncc1C#N [Example 194, 4-(5-Cyano-4-methylamino-pyrimidin-2-ylamino)-N-(3,3-difluoro-cyclobutyl)-3-methoxy-benzamide]",6.5 nM
13,"CNc1nc(Nc2ccc(C(=O)NCC3CC3)cc2OC)ncc1C#N [Example 195, 4-(5-Cyano-4-methylamino-pyrimidin-2-ylamino)-N-cyclopropylmethyl-3-methoxy-benzamide]",4.2 nM
14,"CNc1nc(Nc2ccc(C(=O)N3CC[C@H](F)C3)cc2OC)ncc1C#N [Example 196, 2-[4-((S)-3-Fluoro-pyrrolidine-1-carbonyl)-2-methoxy-phenylamino]-4-methylamino-pyrimidine-5-carbonitrile]",6 nM
15,"CNC(=O)c1ccc(Nc2ncc(C#N)c(NC)n2)c(OC)c1 [Example 197, 4-(5-Cyano-4-methylamino-pyrimidin-2-ylamino)-3-methoxy-N-methyl-benzamide]",6.6 nM
16,"CCN(CC)C(=O)c1ccc(Nc2ncc(C#N)c(NC)n2)c(OC)c1 [Example 199, 4-(5-Cyano-4-methylamino-pyrimidin-2-ylamino)-N,N-diethyl-3-methoxy-benzamide]",6.8 nM
17,"CNc1nc(Nc2ccc(C(=O)NC(C)C)cc2OC)ncc1C#N [Example 200, 4-(5-Cyano-4-methylamino-pyrimidin-2-ylamino)-N-isopropyl-3-methoxy-benzamide]",4.4 nM
18,"CCNC(=O)c1ccc(Nc2ncc(C#N)c(NC)n2)c(OC)c1 [Example 203, 4-(5-Cyano-4-methylamino-pyrimidin-2-ylamino)-N-ethyl-3-methoxy-benzamide]",9.6 nM
19,"CNc1nc(Nc2ccc(C(=O)N3CCCCC3)cc2OC)ncc1C#N [Example 204, 2-[2-Methoxy-4-(piperidine-1-carbonyl)-phenylamino]-4-methylamino-pyrimidine-5-carbonitrile]",3.3 nM
20,"CNc1nc(Nc2ccc(C(=O)NCC(F)F)cc2OC)ncc1C#N [Example 205, 4-(5-Cyano-4-methylamino-pyrimidin-2-ylamino)-N-(2,2-difluoro-ethyl)-3-methoxy-benzamide]",12.1 nM
21,"CNc1nc(Nc2ccc(C(=O)NC(C)(C)C)cc2OC)ncc1C#N [Example 206, N-tert-Butyl-4-(5-cyano-4-methylamino-pyrimidin-2-ylamino)-3-methoxy-benzamide]",4.6 nM
22,"CCN(C(=O)c1ccc(Nc2ncc(C#N)c(NC)n2)c(OC)c1)C(C)C [Example 207, 4-(5-Cyano-4-methylamino-pyrimidin-2-ylamino)-N-ethyl-N-isopropyl-3-methoxy-benzamide]",5.4 nM
23,"CNc1nc(Nc2ccc(C(=O)N3CCC(F)(F)C3)cc2OC)ncc1C#N [Example 208, 2-[4-(3,3-Difluoropyrrolidine-1-carbonyl)-2-methoxy-phenylamino]-4-methylamino-pyrimidine-5-carbonitrile]",8.1 nM
24,"CNc1nc(Nc2ccc(C(=O)N3CCC3)cc2OC)ncc1C#N [Example 212, 2-[4-(Azetidine-1-carbonyl)-2-methoxy-phenylamino]-4-methylamino-pyrimidine-5-carbonitrile]",26.4 nM
25,"CNc1nc(Nc2ccc(C(=O)N(C)C(C)C)cc2OC)ncc1C#N [Example 213, 4-(5-Cyano-4-methylamino-pyrimidin-2-ylamino)-N-isopropyl-3-methoxy-N-methyl-benzamide]",6.8 nM
26,"COc1cc(C(=O)N2CCOCC2)ccc1Nc1ncc(Cl)c(NC2CCOC2)n1 (stereo not shown) [Example 214, {4-[5-Chloro-4-(tetrahydro-furan-3-ylamino)-pyrimidin-2-ylamino]-3-methoxy-phenyl}-morpholin-4-yl-methanone]",18.4 nM
27,"CNc1nc(Nc2ccc(C(=O)N3CCOCC3)cc2OC(C)C)ncc1C(F)(F)F [Example 215, [3-Isopropoxy-4-(4-methylamino-5-trifluoromethyl-pyrimidin-2-ylamino)-phenyl]-morpholin-4-yl-methanone]",9.4 nM
28,"CCOc1cc(C(=O)N2CCOCC2)ccc1Nc1ncc(C(F)(F)F)c(NC)n1 [Example 216, [3-Ethoxy-4-(4-methylamino-5-trifluoromethyl-pyrimidin-2-ylamino)-phenyl]-morpholin-4-yl-methanone]",4.2 nM
